# Source: US20240099989A1, “AGENT FOR PREVENTING OR IMPROVING PERIPHERAL NEUROPATHY” (KINKI UNIVERSITY, priority 2021, published 2024)
# Experiments:
# [1] = system: Peripheral Neuropathy in a Mouse Caused by Oxaliplatin; assay: Von Frey test (0.16 g filament), peripheral neuropathy caused by oxaliplatin; type: in vivo, Balb/c mice; conditions: 6 mg/kg oxaliplatin + 100 mg/kg orally daily from Day 6 (therapy)
# Text: (§1) Six to seven-week-old female Balb/c mice were used for the tests as with Example 1. All the mice were acclimated for seven days after arrival. Then, the mice were grouped into the following four groups: a control group, a group receiving oxaliplatin, a group receiving D-threitol, and a group receiving oxaliplatin and D-threitol (a group receiving oxaliplatin+D-threitol). Each group consisted of five mice.
# (§2) On Day 8 of acclimation, the mice in the group receiving oxaliplatin and the group receiving oxaliplatin+D-threitol were intraperitoneally administered with oxaliplatin at a dose of 6 mg/kg. This day was designated as the first day of the administration (Day 0). Thereafter, these mice were intraperitoneally administered with oxaliplatin at a daily dose of 6 mg/kg on Day 7 and Day 14.
# The mice in the group receiving D-threitol and the group receiving oxaliplatin+D-threitol were orally administered with D-threitol at a dose of 5 mg/kg daily from Day 0.
# The mice in the four groups described in (1) of the present example (Example 3) were placed in a cage, and the avoidance response frequency (score) was measured by pressing a filament with a bending force of 0.16 g against the back of the hind paw.
# On Day 8 of acclimation, the mice in the group receiving oxaliplatin and the group receiving oxaliplatin+D-threitol were intraperitoneally administered with oxaliplatin at a dose of 6 mg/kg. This day was designated as the first day of the administration (Day 0). Thereafter, these mice were intraperitoneally administered with oxaliplatin at the same dose on Day 7 and Day 14 for a total of 3 doses.
# The mice in the group receiving 100 mg/kg D-threitol were orally administered with D-threitol at a dose of 100 mg/kg daily from Day 0. The mice in the group receiving oxaliplatin+100 mg/kg D-threitol were orally administered with D-threitol at a dose of 100 mg/kg daily from Day 6 of administration.
# For the mice in the four groups described in (1) of the present example (Example 4), the avoidance response frequency (score) was measured by pressing a filament with a bending force of 0.16 g against the back of the hind paw.
# as §1, with “L-talitol,” for “D-threitol,”, “L-talitol” for “D-threitol”, “oxaliplatin+L-talitol).” for “oxaliplatin+D-threitol).”, “mice. […]” for “mice.”
# The mice in the four groups described in (1) of the present example (Example 5) were placed in a cage, and the avoidance response frequency (score) was measured by pressing a filament with a bending force of 0.16 g against the back of the hind paw. […]
# [2] = system: Peripheral Neuropathy in a Mouse Caused by Vincristine; type: in vivo, Balb/c mice; conditions: 0.2 mg/kg vincristine + 100 mg/kg orally daily from Day 6 (therapy); from Day 12 onwards
# Text: (§3) Six to seven-week-old female Balb/c mice were used for the tests. All the mice were acclimated for seven days after arrival. Then, the mice were grouped into the following four groups: a control group, a group receiving vincristine, a group receiving xylitol, and a group receiving vincristine and xylitol (a group receiving vincristine+xylitol). Each group consisted of five mice.
# as §2, with “vincristine” for “oxaliplatin”, “vincristine+xylitol” for “oxaliplatin+D-threitol”, “0.2” for “6”, “Day 0” for “the first day”, “administration.” for “the administration (Day 0).”
# The mice in the group receiving xylitol and the group receiving vincristine+xylitol were orally administered with xylitol at a dose of 5 mg/kg daily from Day 0.
# The mice in the four groups described in (7) of the present example (Example 1) were placed in a cage, and the avoidance response frequency (score) was measured by pressing a filament with a bending force of 0.16 g against the back of the hind paw.
# as §3, with “tests as with Example 1.” for “tests.”, “mice. […]” for “mice.”
# For the mice in the four groups described in (9) of the present example (Example 2), the avoidance response frequency (score) was measured by pressing a filament with a bending force of 0.16 g against the back of the hind paw. […]
# The mice in the four groups described in (7) of the present example (Example 3) were placed in a cage, and the avoidance response frequency (score) was measured by pressing a filament with a bending force of 0.16 g against the back of the hind paw. […]
SMILES,avoidance response score ([1]; from Day 15 onwards),avoidance response score [2],avoidance response score ([1]; from Day 12 onwards)
OC[C@@H](O)[C@H](O)CO [D-threitol],maintained a score clearly lower than that of the group receiving oxaliplatin,maintained a score clearly lower than that of the group receiving vincristine,–
OC[C@H](O)[C@H](O)[C@H](O)[C@@H](O)CO [L-talitol],–,maintained a score clearly lower than that of the group receiving vincristine,maintained a score clearly lower than that of the group receiving oxaliplatin
OC[C@@H](O)[C@H](O)[C@@H](O)CO [xylitol],–,maintained a score clearly lower than that of the group receiving vincristine,maintained a score clearly lower than that of the group receiving oxaliplatin
